System: RSV Long strain
Experiment: Viral cytopathic effect (CPE) assay, anti-RSV activity
Assay type: cell-based, Respiratory Syncytial Virus
Settings: human respiratory syncytial virus, 144 h, RSV Long strain (ATCC); cell viability after 6 days, Cell Counting kit-8
Procedure: Viral cytopathic effect (CPE) assay: To measure anti-RSV activity of compounds, 96-well plates are seeded with 6×10^3 cells per well in Dulbecco's modified Eagle's medium (DMEM) containing 10% fetal bovine serum (FBS). Cells are infected the next day with sufficient RSV Long strain (ATCC) to produce an approximately 80-90% cytopathic effect after 6 days, in the presence of serial half-log diluted compound in a total volume of 200 μL per well. The viability of cells is assessed after 6 days using Cell Counting kit-8 (Dojindo Molecular Technologies). The absorbance at 450 nm and referenced at 630 nm is measured to determine 50% effective concentration (EC50).
The compounds of the present invention were tested for their anti-RSV activity, and the activation as described herein. The Examples were tested in the above assay and found to have EC50 of about 0.0001 μM to about 10 μM.

EC50 [µM]	Structure (SMILES)
0.053	Cc1ccc2nc(N3CCS(=O)(=O)c4ccccc4C3)cc(NC[C@H](O)CO)c2c1 [Example 3-10, (2S)-3-{[2-(1,1-Dioxido-2,3-dihydro-1,4-benzothiazepin-4(5H)-yl)-6-methylquinolin-4-yl]amino}propane-1,2-diol]
0.054	Cc1ccc2nc(N3CCS(=O)(=O)c4ccccc4C3)cc(NC[C@@H](O)CO)c2c1 [Example 3-11, (2R)-3-{[2-(1,1-Dioxido-2,3-dihydro-1,4-benzothiazepin-4(5H)-yl)-6-methylquinolin-4-yl]amino}propane-1,2-diol]
1.65	Cc1ccc2nc(N3CCS(=O)(=O)c4ccccc4C3)cc(NCC3(CN)CC(F)(F)C3)c2c1 [Example 3-12, N-{[1-(Aminomethyl)-3,3-difluorocyclobutyl]methyl}-2-(1,1-dioxido-2,3-dihydro-1,4-benzothiazepin-4(5H)-yl)-6-methylquinolin-4-amine]
0.099	COc1ccc2c(c1)S(=O)(=O)CCN(c1cc(NCC3(N)COC3)c3cc(Cl)ccc3n1)C2 [Example 3-13, N-[(3-Aminooxetan-3-yl)methyl]-6-chloro-2-(8-methoxy-1,1-dioxido-2,3-dihydro-1,4-benzothiazepin-4(5H)-yl)quinolin-4-amine]
0.017	COc1ccc2c(c1)S(=O)(=O)CCN(c1cc(NCC3(CN)COC3)c3cc(Cl)ccc3n1)C2 [Example 3-14, N-{[3-(Aminomethyl)oxetan-3-yl]methyl}-6-chloro-2-(8-methoxy-1,1-dioxido-2,3-dihydro-1,4-benzothiazepin-4(5H)-yl)quinolin-4-amine]
0.075	Cc1ccc2nc(N3CCS(=O)(=O)c4ccccc4C3)cc(NC3CCCC(N)C3)c2c1 (stereo not shown) [Example 3-16, N-[2-(1,1-Dioxido-2,3-dihydro-1,4-benzothiazepin-4(5H)-yl)-6-methylquinolin-4-yl]-cyclohexane-1,3-diamine]
5.05	Cc1ccc2nc(N3CCS(=O)(=O)c4ccccc4C3)cc(N3C[C@H](O)C(C)(C)C3)c2c1 [Example 3-17, (R)-1-[2-(1,1-Dioxido-2,3-dihydro-1,4-benzothiazepin-4(5H)-yl)-6-methylquinolin-4-yl]-4,4-dimethyl-pyrrolidin-3-ol]
0.024	Cc1ccc2nc(N3CCS(=O)(=O)c4ccccc4C3)cc(N[C@H]3CC[C@@H](N)CC3)c2c1 [Example 3-18, cis-N-[2-(1,1-Dioxido-2,3-dihydro-1,4-benzothiazepin-4(5H)-yl)-6-methylquinolin-4-yl]-cyclohexane-1,4-diamine]
0.009	Cc1ccc2nc(N3CCS(=O)(=O)c4ccccc4C3)cc(NCC(F)(F)CN)c2c1 [Example 3-19, N-[2-(1,1-Dioxido-2,3-dihydro-1,4-benzothiazepin-4(5H)-yl)-6-methylquinolin-4-yl]-2,2-difluoropropane-1,3-diamine]
0.507	NCC(F)(F)CNc1cc(N2CCS(=O)(=O)c3ccccc3C2)nc2ccc(Cl)cc12 [Example 3-20, N-[6-Chloro-2-(1,1-dioxido-2,3-dihydro-1,4-benzothiazepin-4(5H)-yl)quinolin-4-yl]-2,2-difluoropropane-1,3-diamine]
0.006	Cc1ccc2nc(N3CCS(=O)(=O)c4ccccc4C3)cc(NCC(F)CN)c2c1 (stereo not shown) [Example 3-21, N-[2-(1,1-Dioxido-2,3-dihydro-1,4-benzothiazepin-4(5H)-yl)-6-methylquinolin-4-yl]-2-fluoropropane-1,3-diamine]
0.032	NC1(CNc2cc(N3CCS(=O)(=O)c4ccccc4C3)nc3ccc(Cl)cc23)COC1 [Example 3-22, N-[(3-Aminooxetan-3-yl)methyl]-6-chloro-2-(1,1-dioxido-2,3-dihydro-1,4-benzothiazepin-4(5H)-yl)quinolin-4-amine]
0.002	NC1(CNc2cc(N3CCS(=O)(=O)c4ccccc4C3)nc3ccc(CO)cc23)COC1 [Example 3-23, [4-{[(3-Aminooxetan-3-yl)methyl]amino}-2-(1,1-dioxido-2,3-dihydro-1,4-benzothiazepin-4(5H)-yl)quinolin-6-yl]methanol]
